# According to patent US8802597B2, “Herbicidal pyrimidines” (E I du Pont de Nemours and Company, priority 2003, dated 2014):
# Read-outs that look alike come from different tables or passages of the source.
# Columns and labels:
# Experiment in all cases: Test C pre/postemergence
# Format in all cases: in vivo
# kochia (Kochia scoparia) = details: for Plant response rating, Kochia: Preemergence
# Source text: (§1) Seeds or nutlets of plant species selected from bermudagrass (Cynodon dactylon), Surinam grass (Brachiaria decumbens), cocklebur (Xanthium strumarium), corn (Zea mays), crabgrass (Digitaria sanguinalis), woolly cupgrass (Eriochloa villosa), giant foxtail (Setaria faberii), goosegrass (Eleusine indica), johnsongrass (Sorghum halepense), kochia (Kochia scoparia), lambsquarters (Chenopodium album), morningglory (Ipomoea coccinea), eastern black nightshade (Solanum ptycanthum), yellow nutsedge (Cyperus esculentus), pigweed (Amaranthus retroflexus), common ragweed (Ambrosia elatior), soybean (Glycine max), common (oilseed) sunflower (Helianthus annuus), and velvetleaf (Abutilon theophrasti) were planted and treated preemergence with test chemicals formulated in a non-phytotoxic solvent mixture which included a surfactant.
# (§2) At the same time, plants selected from these crop and weed species and also winter barley (Hordeum vulgare), blackgrass (Alopecurus myosuroides), canarygrass (Phalaris minor), chickweed (Stellaria media), downy brome (Bromus tectorum), green foxtail (Setaria viridis), Italian ryegrass (Lolium multiflorum), wheat (Triticum aestivum), wild oat (Avena fatua) and windgrass (Apera spica-venti) were treated with postemergence applications of some of the test chemicals formulated in the same manner. Plants ranged in height from 2 to 18 cm (1- to 4-leaf stage) for postemergence treatments. Plant species in the flooded paddy test consisted of rice (Oryza sativa), umbrella sedge (Cyperus difformis), duck salad (Heteranthera limosa) and barnyardgrass (Echinochloa crus-galli) grown to the 2-leaf stage for testing. Treated plants and controls were maintained in a greenhouse for 12 to 14 days, after which time all species were compared to controls and visually evaluated. Plant response ratings, summarized in Table C, are based on a scale of 0 to 100 where 0 is no effect and 100 is complete control. A dash (-) response means no test result.
# [1] = tested on: crabgrass (Digitaria sanguinalis); details: for pest or weed control at 62 g/ha / pest or weed control at 125 g/ha / pest or weed control at 250 g/ha / pest or weed control at 500 g/ha: Digitaria sanguinalis; for pest or weed control at 250 g/ha: 250 g ai/ha; for pest or weed control at 500 g/ha: 500 g ai/ha
# Source text: as §1, §2
# [2] = tested on: cocklebur (Xanthium strumarium); details: for pest or weed control at 62 g/ha / pest or weed control at 125 g/ha / pest or weed control at 250 g/ha / pest or weed control at 500 g/ha: Xanthium strumarium; for pest or weed control at 250 g/ha: 250 g ai/ha; for pest or weed control at 500 g/ha: 500 g ai/ha
# Source text: as §1, §2
# [3] = tested on: johnsongrass (Sorghum halepense); details: for pest or weed control at 62 g/ha / pest or weed control at 125 g/ha / pest or weed control at 250 g/ha / pest or weed control at 500 g/ha: Sorghum halepense; for pest or weed control at 250 g/ha: 250 g ai/ha; for pest or weed control at 500 g/ha: 500 g ai/ha
# Source text: as §1, §2
# [4] = tested on: pigweed (Amaranthus retroflexus); details: for pest or weed control at 62 g/ha / pest or weed control at 125 g/ha / pest or weed control at 250 g/ha / pest or weed control at 500 g/ha: Amaranthus retroflexus; for pest or weed control at 250 g/ha: 250 g ai/ha; for pest or weed control at 500 g/ha: 500 g ai/ha
# Source text: as §1, §2
# [5] = Postemergence, 62 g ai/ha, scale 0 to 100 (0 no effect, 100 complete control)
# [6] = Postemergence, 125 g ai/ha, scale 0 to 100 (0 no effect, 100 complete control)
# [7] = Preemergence, 16 g ai/ha, scale 0 to 100, 0 no effect, 100 complete control
# [8] = Preemergence, 31 g ai/ha, scale 0 to 100, 0 no effect, 100 complete control
# [9] = Preemergence, 62 g ai/ha, scale 0 to 100, 0 no effect, 100 complete control
# [10] = Preemergence, 125 g ai/ha, scale 0 to 100
# [11] = post-emergence, Postemergence, scale 0 to 100, read-out: Plant response rating, Crabgrass
# [12] = pre-emergence, Preemergence, scale 0 to 100, read-out: Plant response rating, Crabgrass
# [13] = post-emergence, Postemergence, scale 0 to 100, read-out: Plant response rating, Cocklebur
# [14] = pre-emergence, Preemergence, scale 0 to 100, read-out: Plant response rating, Cocklebur
# [15] = post-emergence, Postemergence, scale 0 to 100, read-out: Plant response rating, Johnsongrass
# [16] = pre-emergence, Preemergence, scale 0 to 100, read-out: Plant response rating, Johnsongrass
# [17] = post-emergence, Postemergence, scale 0 to 100, read-out: Plant response rating, Pigweed
# [18] = pre-emergence, Preemergence, scale 0 to 100, read-out: Plant response rating, Pigweed
structure (smiles),measurement,setting,value
COC(=O)c1nc(C2CC2)nc(N=CN(C)C)c1Br [Compound 19],"Plant response rating (scale of 0 to 100), Kochia","kochia (Kochia scoparia); Postemergence, 16 g ai/ha",80
same,"Plant response rating (scale of 0 to 100), Kochia","kochia (Kochia scoparia); Postemergence, 31 g ai/ha",90
same,Kochia plant response rating,kochia (Kochia scoparia); [5],90
same,Kochia plant response rating,kochia (Kochia scoparia); [6],90
same,"Plant response rating, Kochia","kochia (Kochia scoparia); 16 g ai/ha, scale 0 to 100, 0 no effect, 100 complete control",35
same,"Plant response rating, Kochia","kochia (Kochia scoparia); 62 g ai/ha, scale 0 to 100, 0 no effect, 100 complete control",85
same,"Plant response rating, Kochia","kochia (Kochia scoparia); 125 g ai/ha, scale 0 to 100",90
same,"Plant response rating (scale of 0 to 100), Crabgrass","[1]; Postemergence, 16 g ai/ha",20
same,"Plant response rating (scale of 0 to 100), Crabgrass","[1]; Postemergence, 31 g ai/ha",40
same,Crabgrass plant response rating,[1]; [5],70
same,Crabgrass plant response rating,[1]; [6],70
same,"Plant response rating, Crabgrass",[1]; [7],0
same,"Plant response rating, Crabgrass",[1]; [8],0
same,"Plant response rating, Crabgrass",[1]; [9],0
same,"Plant response rating, Crabgrass",[1]; [10],0
same,"Plant response rating (scale of 0 to 100), Cocklebur","[2]; Postemergence, 16 g ai/ha",25
same,"Plant response rating (scale of 0 to 100), Cocklebur","[2]; Postemergence, 31 g ai/ha",25
same,Cocklebur plant response rating,[2]; [5],50
same,Cocklebur plant response rating,[2]; [6],90
same,"Plant response rating, Cocklebur",[2]; [7],15
same,"Plant response rating, Cocklebur",[2]; [8],30
same,"Plant response rating, Cocklebur",[2]; [9],65
same,"Plant response rating, Cocklebur",[2]; [10],80
same,"Plant response rating (scale of 0 to 100), Johnsongrass","[3]; Postemergence, 16 g ai/ha",0
same,"Plant response rating (scale of 0 to 100), Johnsongrass","[3]; Postemergence, 31 g ai/ha",0
same,Johnsongrass plant response rating,[3]; [5],0
same,"Plant response rating, Johnsongrass",[3]; [7],0
same,"Plant response rating, Johnsongrass",[3]; [8],0
same,"Plant response rating, Johnsongrass",[3]; [9],35
same,"Plant response rating, Johnsongrass",[3]; [10],55
same,"Plant response rating (scale of 0 to 100), Pigweed","[4]; Postemergence, 16 g ai/ha",50
same,"Plant response rating (scale of 0 to 100), Pigweed","[4]; Postemergence, 31 g ai/ha",50
same,Pigweed plant response rating,[4]; [5],65
same,Pigweed plant response rating,[4]; [6],65
same,"Plant response rating, Pigweed",[4]; [7],35
same,"Plant response rating, Pigweed",[4]; [8],45
same,"Plant response rating, Pigweed",[4]; [9],70
same,"Plant response rating, Pigweed",[4]; [10],95
"Nc1nc(C2CC2)nc(C(=O)OCc2ccccc2)c1Br [Compound 22, phenylmethyl 6-amino-5-bromo-2-cyclopropyl-4-pyrimidinecarboxylate]",pest or weed control at 62 g/ha,"kochia (Kochia scoparia); Bassia scoparia, post-emergence, Postemergence, 62 g ai/ha, scale 0 to 100 (0 no effect, 100 complete control), read-out: Kochia plant response rating",95%
same,pest or weed control at 125 g/ha,"kochia (Kochia scoparia); Bassia scoparia, post-emergence, Postemergence, 125 g ai/ha, scale 0 to 100 (0 no effect, 100 complete control), read-out: Kochia plant response rating",100%
same,pest or weed control at 250 g/ha,"kochia (Kochia scoparia); Bassia scoparia, post-emergence, Postemergence, 250 g ai/ha, scale 0 to 100, read-out: Plant response rating, Kochia",100%
same,pest or weed control at 500 g/ha,"kochia (Kochia scoparia); Bassia scoparia, post-emergence, Postemergence, 500 g ai/ha, scale 0 to 100, read-out: Plant response rating, Kochia",100%
same,pest or weed control at 62 g/ha,"[1]; post-emergence, Postemergence, 62 g ai/ha, scale 0 to 100 (0 no effect, 100 complete control), read-out: Crabgrass plant response rating",50%
same,pest or weed control at 125 g/ha,"[1]; post-emergence, Postemergence, 125 g ai/ha, scale 0 to 100 (0 no effect, 100 complete control), read-out: Crabgrass plant response rating",55%
same,pest or weed control at 250 g/ha,[1]; [11],85%
same,pest or weed control at 500 g/ha,[1]; [11],85%
same,pest or weed control at 62 g/ha,"[1]; pre-emergence, Preemergence, 62 g ai/ha, scale 0 to 100, 0 no effect, 100 complete control, read-out: Plant response rating, Crabgrass",90%
same,pest or weed control at 125 g/ha,"[1]; pre-emergence, Preemergence, 125 g ai/ha, scale 0 to 100, read-out: Plant response rating, Crabgrass",95%
same,pest or weed control at 250 g/ha,[1]; [12],95%
same,pest or weed control at 500 g/ha,[1]; [12],100%
same,pest or weed control at 62 g/ha,"[2]; post-emergence, Postemergence, 62 g ai/ha, scale 0 to 100 (0 no effect, 100 complete control), read-out: Cocklebur plant response rating",90%
same,pest or weed control at 125 g/ha,"[2]; post-emergence, Postemergence, 125 g ai/ha, scale 0 to 100 (0 no effect, 100 complete control), read-out: Cocklebur plant response rating",90%
same,pest or weed control at 250 g/ha,[2]; [13],100%
same,pest or weed control at 500 g/ha,[2]; [13],100%
same,pest or weed control at 62 g/ha,"[2]; pre-emergence, Preemergence, 62 g ai/ha, scale 0 to 100, 0 no effect, 100 complete control, read-out: Plant response rating, Cocklebur",90%
same,pest or weed control at 125 g/ha,"[2]; pre-emergence, Preemergence, 125 g ai/ha, scale 0 to 100, read-out: Plant response rating, Cocklebur",95%
same,pest or weed control at 250 g/ha,[2]; [14],100%
same,pest or weed control at 500 g/ha,[2]; [14],100%
same,pest or weed control at 62 g/ha,"[3]; post-emergence, Postemergence, 62 g ai/ha, scale 0 to 100 (0 no effect, 100 complete control), read-out: Johnsongrass plant response rating",40%
same,pest or weed control at 125 g/ha,"[3]; post-emergence, Postemergence, 125 g ai/ha, scale 0 to 100 (0 no effect, 100 complete control), read-out: Johnsongrass plant response rating",80%
same,pest or weed control at 250 g/ha,[3]; [15],80%
same,pest or weed control at 500 g/ha,[3]; [15],100%
same,pest or weed control at 62 g/ha,"[3]; pre-emergence, Preemergence, 62 g ai/ha, scale 0 to 100, 0 no effect, 100 complete control, read-out: Plant response rating, Johnsongrass",80%
same,pest or weed control at 125 g/ha,"[3]; pre-emergence, Preemergence, 125 g ai/ha, scale 0 to 100, read-out: Plant response rating, Johnsongrass",100%
same,pest or weed control at 250 g/ha,[3]; [16],100%
same,pest or weed control at 500 g/ha,[3]; [16],100%
same,pest or weed control at 62 g/ha,"[4]; post-emergence, Postemergence, 62 g ai/ha, scale 0 to 100 (0 no effect, 100 complete control), read-out: Pigweed plant response rating",85%
same,pest or weed control at 125 g/ha,"[4]; post-emergence, Postemergence, 125 g ai/ha, scale 0 to 100 (0 no effect, 100 complete control), read-out: Pigweed plant response rating",100%
same,pest or weed control at 250 g/ha,[4]; [17],100%
same,pest or weed control at 500 g/ha,[4]; [17],100%
same,pest or weed control at 62 g/ha,"[4]; pre-emergence, Preemergence, 62 g ai/ha, scale 0 to 100, 0 no effect, 100 complete control, read-out: Plant response rating, Pigweed",90%
same,pest or weed control at 125 g/ha,"[4]; pre-emergence, Preemergence, 125 g ai/ha, scale 0 to 100, read-out: Plant response rating, Pigweed",100%
same,pest or weed control at 250 g/ha,[4]; [18],100%
same,pest or weed control at 500 g/ha,[4]; [18],100%
